{
  "source": "patent US12599555B2",
  "about": "“Formulation” (priority 2019, dated 2026)",
  "origin": "cited, not measured here",
  "settings": "administered by inhalation in the treatment of asthma",
  "data": [
    {"compound": "O=C([O-])c1cc(=O)c2c(OCC(O)COc3cccc4oc(C(=O)[O-])cc(=O)c34)cccc2o1.[Na+].[Na+]", "note": "[sodium cromoglicate, disodium 5,5′-[(2-hydroxytrimethylene)dioxy]bis-[4-oxo-4H-1-benzopyran-2-carboxylate]]", "values": [
      {"measurement": "bioavailability", "result": "10-15%"}
    ]}
  ]
}
